{"source": "paper PMC5218480", "about": "(PLoS ONE, 2017)", "system": "MV-4-11 cells", "test": "Gene expression microarray analysis (Affymetrix PrimeView) and GSEA", "format": "cell-based, human", "parameters": "RFU PODN (11730768_x_at) / Fold change /veh PODN (11730768_x_at) / RFU LINC00158 (11744669_a_at) / Fold change /veh LINC00158 (11744669_a_at) / RFU DUSP10 (11751237_a_at) / Fold change /veh DUSP10 (11751237_a_at) / RFU ID3 (11757404_x_at) / Fold change /veh ID3 (11757404_x_at) / RFU PLEKHG5 (11737974_s_at) / Fold change /veh PLEKHG5 (11737974_s_at) / RFU LRRC4B (11730491_at) / Fold change /veh LRRC4B (11730491_at) / RFU GIMAP4 (11747438_a_at) / Fold change /veh GIMAP4 (11747438_a_at) / RFU KRT8 (11758183_x_at) / Fold change /veh KRT8 (11758183_x_at) / RFU CNN1 (11734310_a_at) / Fold change /veh CNN1 (11734310_a_at) / RFU VPS37D (11726825_at) / Fold change /veh VPS37D (11726825_at) / RFU C10orf10 (11716522_x_at) / Fold change /veh C10orf10 (11716522_x_at) / RFU KIR2DL2 /// KIR2DL4 /// KIR2DL5A /// KIR2DL5B /// KIR2DS1 /// KIR2DS2 /// KIR2DS3 /// KIR2DS4 /// KIR3DL3 /// KIR3DL3 /// KIR3DS1 (11738374_at) / Fold change /veh KIR2DL2 /// KIR2DL4 /// KIR2DL5A /// KIR2DL5B /// KIR2DS1 /// KIR2DS2 /// KIR2DS3 /// KIR2DS4 /// KIR3DL3 /// KIR3DL3 /// KIR3DS1 (11738374_at) / RFU C1QL1 (11718748_at) / Fold change /veh C1QL1 (11718748_at) / RFU TMPRSS4 (11747572_a_at) / Fold change /veh TMPRSS4 (11747572_a_at) / RFU HAMP (11756126_x_at) / Fold change /veh HAMP (11756126_x_at) / RFU RNFT2 (11725882_a_at) / Fold change /veh RNFT2 (11725882_a_at) / RFU NR4A2 (11747474_a_at) / Fold change /veh NR4A2 (11747474_a_at) / RFU ABCC12 (11746883_a_at) / Fold change /veh ABCC12 (11746883_a_at) / RFU TMEM136 (11760407_x_at) / Fold change /veh TMEM136 (11760407_x_at) / RFU CLDN22 /// WWC2 (11732394_at) / Fold change /veh CLDN22 /// WWC2 (11732394_at) / RFU HLA-DPB1 (11760878_x_at) / Fold change /veh HLA-DPB1 (11760878_x_at) / RFU SPINT1 (11716480_a_at) / Fold change /veh SPINT1 (11716480_a_at) / RFU GAP43 (11754022_s_at) / Fold change /veh GAP43 (11754022_s_at) / RFU A4GNT (11735810_at) / Fold change /veh A4GNT (11735810_at) / RFU PRB3 (11715151_x_at) / Fold change /veh PRB3 (11715151_x_at) / RFU TUBB4B (11761932_at) / Fold change /veh TUBB4B (11761932_at) / RFU CAPN14 (11732068_a_at) / Fold change /veh CAPN14 (11732068_a_at) / RFU TMCC2 (11721928_a_at) / Fold change /veh TMCC2 (11721928_a_at) / RFU IRGQ (11745062_a_at) / Fold change /veh IRGQ (11745062_a_at) / RFU FAM174B (11720279_a_at) / Fold change /veh FAM174B (11720279_a_at) / RFU TMPRSS4 (11748680_a_at) / Fold change /veh TMPRSS4 (11748680_a_at) / RFU FAM212B (11763350_a_at) / Fold change /veh FAM212B (11763350_a_at) / RFU PLEKHG5 (11743358_a_at) / Fold change /veh PLEKHG5 (11743358_a_at) / RFU ZSCAN30 (11745921_a_at) / Fold change /veh ZSCAN30 (11745921_a_at) / RFU CMKLR1 (11741424_a_at) / Fold change /veh CMKLR1 (11741424_a_at) / RFU LOC101060620 /// MAPK8IP1 (11723275_at) / Fold change /veh LOC101060620 /// MAPK8IP1 (11723275_at) / RFU SPTSSB (11747773_x_at) / Fold change /veh SPTSSB (11747773_x_at) / RFU PRSS12 (11739890_at) / Fold change /veh PRSS12 (11739890_at) / RFU BIN1 (11741810_x_at) / Fold change /veh BIN1 (11741810_x_at) / RFU WNT11 (11732464_a_at) / Fold change /veh WNT11 (11732464_a_at) / RFU C10orf10 (11716521_a_at) / Fold change /veh C10orf10 (11716521_a_at) / RFU C5orf56 (11738089_at) / Fold change /veh C5orf56 (11738089_at) / RFU CYB561 (11721691_x_at) / Fold change /veh CYB561 (11721691_x_at) / RFU ANKRD19P (11752326_a_at) / Fold change /veh ANKRD19P (11752326_a_at) / RFU OR2T12 /// OR2T33 /// OR2T8 (11738714_s_at) / Fold change /veh OR2T12 /// OR2T33 /// OR2T8 (11738714_s_at) / RFU VCAN (11748164_a_at) / Fold change /veh VCAN (11748164_a_at) / RFU JSRP1 (11732532_at) / Fold change /veh JSRP1 (11732532_at) / RFU KRTAP10-11 (11738290_x_at) / Fold change /veh KRTAP10-11 (11738290_x_at) / RFU MYO3A (11730013_a_at) / Fold change /veh MYO3A (11730013_a_at) / RFU EBF3 (11725865_a_at) / Fold change /veh EBF3 (11725865_a_at) / RFU CAMK2N1 (11719241_x_at) / Fold change /veh CAMK2N1 (11719241_x_at) / RFU C5orf56 (11738088_a_at) / Fold change /veh C5orf56 (11738088_a_at) / RFU OLFML3 (11715873_a_at) / Fold change /veh OLFML3 (11715873_a_at) / RFU LOC100653217 /// NTM (11731650_a_at) / Fold change /veh LOC100653217 /// NTM (11731650_a_at) / RFU MAPK11 (11762145_a_at) / Fold change /veh MAPK11 (11762145_a_at) / RFU FIZ1 (11724087_x_at) / Fold change /veh FIZ1 (11724087_x_at) / RFU OASL (11726364_x_at) / Fold change /veh OASL (11726364_x_at) / RFU SOX15 (11748057_x_at) / Fold change /veh SOX15 (11748057_x_at) / RFU CD79A (11719716_a_at) / Fold change /veh CD79A (11719716_a_at) / RFU HIST1H1D (11736915_at) / Fold change /veh HIST1H1D (11736915_at) / RFU CASKIN2 (11723855_a_at) / Fold change /veh CASKIN2 (11723855_a_at) / RFU LOC730098 (11760151_x_at) / Fold change /veh LOC730098 (11760151_x_at) / RFU OR4N2 (11742367_at) / Fold change /veh OR4N2 (11742367_at) / RFU PRRT2 (11749266_a_at) / Fold change /veh PRRT2 (11749266_a_at) / RFU SNX32 (11753110_a_at) / Fold change /veh SNX32 (11753110_a_at) / RFU CDHR5 (11726645_a_at) / Fold change /veh CDHR5 (11726645_a_at) / RFU RCAN1 (11760418_a_at) / Fold change /veh RCAN1 (11760418_a_at) / RFU FAM167A (11723789_a_at) / Fold change /veh FAM167A (11723789_a_at) / RFU FAM26E (11764081_at) / Fold change /veh FAM26E (11764081_at) / RFU ISYNA1 (11749810_s_at) / Fold change /veh ISYNA1 (11749810_s_at) / RFU ACY1 (11761880_at) / Fold change /veh ACY1 (11761880_at) / RFU 11764098_at / Fold change /veh 11764098_at / RFU SAMD14 (11745864_x_at) / Fold change /veh SAMD14 (11745864_x_at) / RFU NPB (11741838_a_at) / Fold change /veh NPB (11741838_a_at) / RFU TMPRSS6 (11731388_a_at) / Fold change /veh TMPRSS6 (11731388_a_at) / RFU KRTAP10-2 (11738614_at) / Fold change /veh KRTAP10-2 (11738614_at) / RFU ARHGAP8 /// PRR5-ARHGAP8 (11727945_x_at) / Fold change /veh ARHGAP8 /// PRR5-ARHGAP8 (11727945_x_at) / RFU KRTAP5-7 /// NADSYN1 (11734609_at) / Fold change /veh KRTAP5-7 /// NADSYN1 (11734609_at) / RFU RASL12 (11751679_a_at) / Fold change /veh RASL12 (11751679_a_at) / RFU CDKN2B (11736163_a_at) / Fold change /veh CDKN2B (11736163_a_at) / RFU PRF1 (11729649_at) / Fold change /veh PRF1 (11729649_at) / RFU, ZNF638 /// ZNF638-IT1 / Fold change vs veh, ZNF638 /// ZNF638-IT1 / RFU, PANK3 / Fold change vs veh, PANK3 / RFU, SH3YL1 / Fold change vs veh, SH3YL1 / RFU, ZEB2 / Fold change vs veh, ZEB2 / RFU, NRIP1 / Fold change vs veh, NRIP1 / RFU, PTTG1IP / Fold change vs veh, PTTG1IP / RFU, CAPN2 / Fold change vs veh, CAPN2 / RFU, MED14 / Fold change vs veh, MED14 / RFU, SNORA58 / Fold change vs veh, SNORA58 / RFU, C1orf63 / Fold change vs veh, C1orf63 / RFU, LRRFIP1 / Fold change vs veh, LRRFIP1 / RFU, NDUFAF7 / Fold change vs veh, NDUFAF7 / RFU, SLC12A2 / Fold change vs veh, SLC12A2 / RFU, IBTK / Fold change vs veh, IBTK / RFU, ESF1 / Fold change vs veh, ESF1 / Fold change vs veh, TMEM50B / RFU, TAOK1 / Fold change vs veh, TAOK1 / RFU, ACBD3 / Fold change vs veh, ACBD3 / RFU, TMA16 / Fold change vs veh, TMA16 / RFU, RWDD3 / Fold change vs veh, RWDD3 / RFU, BCAT1 / Fold change vs veh, BCAT1 / RFU, EDEM3 / Fold change vs veh, EDEM3 / RFU, TMEM33 / Fold change vs veh, TMEM33 / RFU, WDR75 / Fold change vs veh, WDR75 / RFU, AHCTF1 / Fold change vs veh, AHCTF1 / RFU, TFRC / Fold change vs veh, TFRC / RFU, ZDHHC17 / Fold change vs veh, ZDHHC17 / RFU, NOM1 / Fold change vs veh, NOM1 / RFU, ARL8B / Fold change vs veh, ARL8B / RFU, ZBTB11 / Fold change vs veh, ZBTB11 / RFU, TAMM41 / Fold change vs veh, TAMM41 / RFU, KIAA1704 /// LOC100996395 / Fold change vs veh, KIAA1704 /// LOC100996395 / RFU, ING1 / Fold change vs veh, ING1 / RFU, TRMT61B / Fold change vs veh, TRMT61B / RFU, FUBP3 / Fold change vs veh, FUBP3 / RFU, TP53 / Fold change vs veh, TP53 / RFU, TNKS2 / Fold change vs veh, TNKS2 / RFU, ZFP14 / Fold change vs veh, ZFP14 / RFU, ACTR2 / Fold change vs veh, ACTR2 / RFU, PPP3R1 / Fold change vs veh, PPP3R1 / RFU, PIK3R1 / Fold change vs veh, PIK3R1 / RFU, HNRNPA1 / Fold change vs veh, HNRNPA1 / RFU, RNF170 / Fold change vs veh, RNF170 / RFU, ZNF28 / Fold change vs veh, ZNF28 / RFU, RNGTT / Fold change vs veh, RNGTT / RFU, OGT / Fold change vs veh, OGT / RFU, BRD1 / Fold change vs veh, BRD1 / RFU, MARS / Fold change vs veh, MARS / RFU, ZNF655 / Fold change vs veh, ZNF655 / RFU, FAHD1 / Fold change vs veh, FAHD1 / RFU, BDP1 / Fold change vs veh, BDP1 / RFU, LRRCC1 / Fold change vs veh, LRRCC1 / RFU, ARID1A / Fold change vs veh, ARID1A / RFU, ZNF146 / Fold change vs veh, ZNF146 / RFU, ZNF330 / Fold change vs veh, ZNF330 / RFU, GPN3 / Fold change vs veh, GPN3 / RFU, C9orf123 / Fold change vs veh, C9orf123 / RFU, N4BP2L2 / Fold change vs veh, N4BP2L2 / RFU, ARFIP1 / Fold change vs veh, ARFIP1 / RFU, FAM179B / Fold change vs veh, FAM179B / RFU, BCL10 / Fold change vs veh, BCL10 / RFU, UHRF1BP1L / Fold change vs veh, UHRF1BP1L / RFU, BET1 / Fold change vs veh, BET1 / RFU, CNOT2 / Fold change vs veh, CNOT2 / RFU, ZNF268 / Fold change vs veh, ZNF268 / Fold change vs veh, ZNF507 / RFU, DGCR2 / Fold change vs veh, DGCR2 / RFU, WDSUB1 / Fold change vs veh, WDSUB1 / Fold change vs veh, HSP90B1 /// MIR3652 / RFU, ADSS / Fold change vs veh, ADSS / RFU, GK / Fold change vs veh, GK / RFU, ZNF148 / Fold change vs veh, ZNF148 / RFU, TAF9 / Fold change vs veh, TAF9 / RFU, SLC1A5 / Fold change vs veh, SLC1A5 / RFU, SLMO2 / Fold change vs veh, SLMO2 / RFU, ABCC4 / Fold change vs veh, ABCC4 / RFU, LOC101060439 /// RAP1B / Fold change vs veh, LOC101060439 /// RAP1B / RFU, RFX7 / Fold change vs veh, RFX7 / RFU, GTPBP10 / Fold change vs veh, GTPBP10 / RFU, CNEP1R1 / Fold change vs veh, CNEP1R1 / RFU, BIVM-ERCC5 /// ERCC5 / Fold change vs veh, BIVM-ERCC5 /// ERCC5 / RFU, ILF3 / Fold change vs veh, ILF3 / RFU 11762660_at / Fold change /veh 11762660_at / RFU VCAN (11757783_s_at) / Fold change /veh VCAN (11757783_s_at) / RFU DDX43 (11728927_at) / Fold change /veh DDX43 (11728927_at) / RFU KRT8 (11758188_x_at) / Fold change /veh KRT8 (11758188_x_at) / RFU NKD1 (11759106_at) / Fold change /veh NKD1 (11759106_at) / RFU SRD5A1 (11742802_a_at) / Fold change /veh SRD5A1 (11742802_a_at) / RFU TPSAB1 /// TPSB2 (11721975_s_at) / Fold change /veh TPSAB1 /// TPSB2 (11721975_s_at) / RFU GSTM3 (11746129_a_at) / Fold change /veh GSTM3 (11746129_a_at) / RFU IL23R (11737362_x_at) / Fold change /veh IL23R (11737362_x_at) / RFU TMEM51 (11727254_a_at) / Fold change /veh TMEM51 (11727254_a_at) / RFU PIWIL2 (11732686_x_at) / Fold change /veh PIWIL2 (11732686_x_at) / RFU ORM1 (11744905_x_at) / Fold change /veh ORM1 (11744905_x_at) / RFU CCDC152 (11743942_at) / Fold change /veh CCDC152 (11743942_at) / RFU ECM1 (11717891_a_at) / Fold change /veh ECM1 (11717891_a_at) / RFU IL23R (11748794_a_at) / Fold change /veh IL23R (11748794_a_at) / RFU TNFAIP8L3 (11732012_x_at) / Fold change /veh TNFAIP8L3 (11732012_x_at) / RFU MBOAT4 (11741988_at) / Fold change /veh MBOAT4 (11741988_at) / RFU 11764193_at / Fold change /veh 11764193_at / RFU TMEM53 (11763286_at) / Fold change /veh TMEM53 (11763286_at) / RFU MAGEB2 (11727129_at) / Fold change /veh MAGEB2 (11727129_at) / RFU TMEM200A (11744735_a_at) / Fold change /veh TMEM200A (11744735_a_at) / RFU CCDC152 (11751479_a_at) / Fold change /veh CCDC152 (11751479_a_at) / RFU FAM211A (11726209_a_at) / Fold change /veh FAM211A (11726209_a_at) / RFU RGS16 (11746705_a_at) / Fold change /veh RGS16 (11746705_a_at) / RFU VCAN (11755009_s_at) / Fold change /veh VCAN (11755009_s_at) / RFU RHOB (11743442_s_at) / Fold change /veh RHOB (11743442_s_at) / RFU RGS16 (11720943_a_at) / Fold change /veh RGS16 (11720943_a_at) / RFU RGS16 (11720944_at) / Fold change /veh RGS16 (11720944_at) / RFU, VPS4B / Fold change vs veh, VPS4B / RFU, CREB1 / Fold change vs veh, CREB1 / RFU, DNAJC13 / Fold change vs veh, DNAJC13 / RFU, GNAQ / Fold change vs veh, GNAQ / RFU, CDK5R1 / Fold change vs veh, CDK5R1 / RFU, ZRANB3 / Fold change vs veh, ZRANB3 / RFU, CUL4A / Fold change vs veh, CUL4A / RFU, CCNY / Fold change vs veh, CCNY / RFU, UFL1 / Fold change vs veh, UFL1 / RFU, COG3 / Fold change vs veh, COG3 / RFU, DIAPH2 / Fold change vs veh, DIAPH2 / RFU, SKA2 / Fold change vs veh, SKA2 / RFU, AFF3 / Fold change vs veh, AFF3 / RFU, LMF1 / Fold change vs veh, LMF1 / RFU, IPO11 / Fold change vs veh, IPO11 / RFU, DFFB / Fold change vs veh, DFFB / RFU, FOXP1 / Fold change vs veh, FOXP1 / RFU, CARD8 / Fold change vs veh, CARD8 / RFU, STRN3 / Fold change vs veh, STRN3 / RFU, ADK / Fold change vs veh, ADK / RFU, RASSF2 / Fold change vs veh, RASSF2 / RFU, WIPF1 / Fold change vs veh, WIPF1 / RFU, LARP1B / Fold change vs veh, LARP1B / RFU, RASA1 / Fold change vs veh, RASA1 / RFU, RB1 / Fold change vs veh, RB1 / RFU, PPFIA1 / Fold change vs veh, PPFIA1 / RFU, MAT2A / Fold change vs veh, MAT2A / RFU, CCT5 / Fold change vs veh, CCT5 / RFU, WDR92 / Fold change vs veh, WDR92 / RFU, CUX1 / Fold change vs veh, CUX1 / RFU, TTC7A / Fold change vs veh, TTC7A / RFU, TMEM135 / Fold change vs veh, TMEM135 / RFU, DEPTOR / Fold change vs veh, DEPTOR / RFU, CPM / Fold change vs veh, CPM / RFU, DNAJB6 / Fold change vs veh, DNAJB6 / RFU, CACNA2D3 / Fold change vs veh, CACNA2D3 / RFU, DTX4 / Fold change vs veh, DTX4 / RFU, TFCP2 / Fold change vs veh, TFCP2 / RFU, GMCL1 /// GMCL1P1 / Fold change vs veh, GMCL1 /// GMCL1P1 / RFU, AEBP2 / Fold change vs veh, AEBP2 / RFU, SNHG1 /// SNORD22 /// SNORD25 /// SNORD26 /// SNORD27 /// SNORD28 /// SNORD29 /// SNORD31 / Fold change vs veh, SNHG1 /// SNORD22 /// SNORD25 /// SNORD26 /// SNORD27 /// SNORD28 /// SNORD29 /// SNORD31 / Fold change (Aza/veh), C12orf56 (ProbeSet 11735607_a_at) / Fold change (ACY-1035/veh), C12orf56 (ProbeSet 11735607_a_at) / Fold change (Aza/veh), FGFR1OP (ProbeSet 11751329_s_at) / Fold change (ACY-1035/veh), FGFR1OP (ProbeSet 11751329_s_at) / Fold change (Aza/veh), VPS36 (ProbeSet 11739960_a_at) / Fold change (ACY-1035/veh), VPS36 (ProbeSet 11739960_a_at) / RFU SYPL1 (11715823_x_at) / Fold change /veh SYPL1 (11715823_x_at) / RFU IGFBP7 (11715501_s_at) / Fold change /veh IGFBP7 (11715501_s_at) / RFU REEP3 (11722064_at) / Fold change /veh REEP3 (11722064_at) / RFU IGLL1 (11728026_x_at) / Fold change /veh IGLL1 (11728026_x_at): dose or concentration left out as unconfirmed", "details": "MV-4-11 cells, 48 hours"}
{"smiles": "Nc1ccc(-c2cccs2)cc1NC(=O)c1ccc2c(c1)cc(C1CC1)n2CCN1CCOCC1", "note": "[ACY-1035]", "values": [{"measurement": "RFU DUSP10 (11751237_a_at)", "result": 30.58, "unit": "RFU"}]}
